This is an account of results in ChEMBL document CHEMBL6078671, “Synthesis of aromatic glycoconjugates as anti-fungal agents against Candida spp. and assessment of their covalent crosslinking capabilities” (2025).

Values after ≈ are worked out from the molar mass of the structure shown.

What all share (format): functional
For one assay, the system named is Candida albicans. Kind of assay: Fungicidal activity against Candida albicans ATCC 10231 incubated for 24 hrs followed by replacement of medium without compound measured after 48 hrs.
A further assay deals with Candida parapsilosis. The assay is described as follows: Fungicidal activity against Candida parapsilosis ATCC 22019 incubated for 24 hrs followed by replacement of medium without compound measured after 48 hrs. The conditions noted are these: Lodderomyces parapsilosis.
The next assay relates to Nakaseomyces glabratus. Kind of assay: Fungicidal activity against Candida glabrata ATCC 90030 incubated for 24 hrs followed by replacement of medium without compound measured after 48 hrs.
Assay [1] concerns Meyerozyma guilliermondii. Kind of assay: Fungicidal activity against Candida guilliermondii C94 incubated for 24 hrs followed by replacement of medium without compound measured after 48 hrs.
The test system of a further assay is Clavispora lusitaniae. Kind of assay: Fungicidal activity against Candida lusitaniae C18 incubated for 24 hrs followed by replacement of medium without compound measured after 48 hrs.
A further assay concerns [Candida] auris. Kind of assay: Fungicidal activity against Candida auris ATCC CMYA-5001 incubated for 24 hrs followed by replacement of medium without compound measured after 48 hrs. The note with it: Candidozyma auris.

Consider `C=CC(=O)Nc1cc(C(=O)NCc2cn([C@H]3O[C@H](CO)[C@@H](O)[C@H](O)[C@@H]3O)nn2)cc(C(=O)NCc2cn([C@H]3O[C@H](CO)[C@@H](O)[C@H](O)[C@@H]3O)nn2)c1`, for which the MFC (against Candida albicans; against Candida parapsilosis; in the assay with Nakaseomyces glabratus; in assay [1]; in the assay with Clavispora lusitaniae) was greater than 10000 µg/mL each time.
As for `CCC(=O)Nc1cc(C(=O)NCc2cn([C@@H]3O[C@H](CO)[C@H](O)[C@H](O)[C@H]3O)nn2)cc(C(=O)NCc2cn([C@@H]3O[C@H](CO)[C@H](O)[C@@H](O)[C@@H]3O)nn2)c1`, the MFC (in the assay on Nakaseomyces glabratus; in assay [1]) was 10000 µg/mL (≈ 13.9 mM) in each case.
On to `C=CS(=O)(=O)Nc1cc(C(=O)NCc2cn([C@@H]3O[C@H](CO)[C@H](O)[C@H](O)[C@H]3O)nn2)cc(C(=O)NCc2cn([C@@H]3O[C@H](CO)[C@H](O)[C@@H](O)[C@@H]3O)nn2)c1`, for which the MFC with Candida albicans is greater than 10000 µg/mL; in the assay with Candida parapsilosis, greater than 10000 µg/mL; against Nakaseomyces glabratus it was 10000 µg/mL (≈ 13.2 mM); in assay [1], 10000 µg/mL (≈ 13.2 mM); in the assay with Clavispora lusitaniae it was greater than 10000 µg/mL; in assay [Candida] auris, 10000 µg/mL (≈ 13.2 mM).
As for `C=CS(=O)(=O)Nc1cc(C(=O)NCc2cn([C@H]3O[C@@H](C)[C@@H](O)[C@@H](O)[C@@H]3O)nn2)cc(C(=O)NCc2cn([C@H]3O[C@@H](C)[C@@H](O)[C@H](O)[C@@H]3O)nn2)c1`, the MFC (in the assay with Candida albicans; in the assay on Candida parapsilosis; against Nakaseomyces glabratus; in assay [1]; in the assay on Clavispora lusitaniae; in assay [Candida] auris) was greater than 10000 µg/mL each time.
On to `C=CC(=O)Nc1cc(C(=O)NCc2cn([C@H]3O[C@@H](C)[C@@H](O)[C@@H](O)[C@@H]3O)nn2)cc(C(=O)NCc2cn([C@H]3O[C@@H](C)[C@@H](O)[C@H](O)[C@@H]3O)nn2)c1`, for which the MFC (with Candida albicans; against Candida parapsilosis; against Nakaseomyces glabratus; in assay [1]; against Clavispora lusitaniae; in assay [Candida] auris) was greater than 10000 µg/mL in each case.

One may read the MFC as the lowest tested concentration that kills the fungus rather than only halting it.
